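A five-concentration, 48-hour dose response in 96-well plates underlies each endpoint, interpolated linearly between surrounding concentrations. TGI denotes the concentration required for complete inhibition of growth.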
How the values were obtained:
Assay in all cases: NCI tumour cell line growth inhibition, 48 h
IGROV1 ovarian = tested on: IGROV1 ovarian
DMS 114 small cell lung = tested on: DMS 114 small cell lung
OVCAR-4 ovarian = tested on: OVCAR-4 ovarian
RXF 393 renal = tested on: RXF 393 renal
RXF-631 renal = tested on: RXF-631 renal
SW-620 colon = tested on: SW-620 colon
NCI-H522 lung = tested on: NCI-H522 lung
SNB-78 CNS = tested on: SNB-78 CNS
CAKI-1 renal = tested on: CAKI-1 renal
U251 CNS = tested on: U251 CNS
OVCAR-5 ovarian = tested on: OVCAR-5 ovarian
A549 NSCLC = tested on: A549 NSCLC
OVCAR-3 ovarian = tested on: OVCAR-3 ovarian
OVCAR-8 ovarian = tested on: OVCAR-8 ovarian
SK-OV-3 ovarian = tested on: SK-OV-3 ovarian
HCT-116 colon = tested on: HCT-116 colon
ACHN renal = tested on: ACHN renal
SF-268 CNS = tested on: SF-268 CNS
XF 498 CNS = tested on: XF 498 CNS
LOX IMVI melanoma = tested on: LOX IMVI melanoma
HCC-2998 colon = tested on: HCC-2998 colon
EKVX NSCLC = tested on: EKVX NSCLC
KM12 colon = tested on: KM12 colon
KM20L2 colon = tested on: KM20L2 colon
DMS 273 small cell lung = tested on: DMS 273 small cell lung
HOP-62 NSCLC = tested on: HOP-62 NSCLC
COLO 205 colon = tested on: COLO 205 colon
HT29 colon = tested on: HT29 colon
SF-539 CNS = tested on: SF-539 CNS
UO-31 renal = tested on: UO-31 renal
HCT-15 colon = tested on: HCT-15 colon
LXFL 529 NSCLC = tested on: LXFL 529 NSCLC
A498 renal = tested on: A498 renal
SF-295 CNS = tested on: SF-295 CNS
UACC-257 melanoma = tested on: UACC-257 melanoma
SN12C renal = tested on: SN12C renal
SNB-75 CNS = tested on: SNB-75 CNS
SNB-19 CNS = tested on: SNB-19 CNS
786-0 renal = tested on: 786-0 renal
UACC-62 melanoma = tested on: UACC-62 melanoma
DLD-1 colon = tested on: DLD-1 colon
HOP-18 NSCLC = tested on: HOP-18 NSCLC
NCI-H460 lung = tested on: NCI-H460 lung
SK-MEL-5 melanoma = tested on: SK-MEL-5 melanoma
HOP-92 NSCLC = tested on: HOP-92 NSCLC
SK-MEL-28 melanoma = tested on: SK-MEL-28 melanoma
NCI-H226 lung = tested on: NCI-H226 lung
TK-10 renal = tested on: TK-10 renal
NCI-H23 lung = tested on: NCI-H23 lung
RPMI-8226 leukemia = tested on: RPMI-8226 leukemia
M19-MEL melanoma = tested on: M19-MEL melanoma
MALME-3M melanoma = tested on: MALME-3M melanoma
M14 melanoma = tested on: M14 melanoma
K-562 leukemia = tested on: K-562 leukemia
MOLT-4 leukemia = tested on: MOLT-4 leukemia
CCRF-CEM leukemia = tested on: CCRF-CEM leukemia
SK-MEL-2 melanoma = tested on: SK-MEL-2 melanoma
SR leukemia = tested on: SR leukemia
HL-60(TB) leukemia = tested on: HL-60(TB) leukemia

**Q.** How did the TGI (IGROV1 ovarian) turn out when `O=C(/C=C/c1ccc(Cl)c(Cl)c1)C1CCC(Cl)CC1` (stereo not given) was run?
**A.** 33.9 µM

**Q.** And the TGI (DMS 114 small cell lung)?
**A.** 30.7 µM

**Q.** What about the TGI (OVCAR-4 ovarian) of the same compound?
**A.** 39.6 µM

**Q.** And the TGI (RXF 393 renal)?
**A.** 37.9 µM

**Q.** And the TGI (RXF-631 renal)?
**A.** 33.8 µM

**Q.** What about the TGI (SW-620 colon) of the same compound?
**A.** 31.7 µM

**Q.** And the TGI (NCI-H522 lung)?
**A.** 32.9 µM

**Q.** What about the TGI (SNB-78 CNS) of the same compound?
**A.** 42.3 µM

**Q.** And the TGI (CAKI-1 renal)?
**A.** 50.1 µM

**Q.** What about the TGI (U251 CNS) of the same compound?
**A.** 28.3 µM

**Q.** What about the TGI (OVCAR-5 ovarian) of the same compound?
**A.** 43.3 µM

**Q.** What about the TGI (A549 NSCLC) of the same compound?
**A.** 46.8 µM

**Q.** What about the TGI (OVCAR-3 ovarian) of the same compound?
**A.** 28.4 µM

**Q.** What about the TGI (OVCAR-8 ovarian) of the same compound?
**A.** 38.5 µM

**Q.** What about the TGI (SK-OV-3 ovarian) of the same compound?
**A.** 33 µM

**Q.** What about the TGI (HCT-116 colon) of the same compound?
**A.** 25.1 µM

**Q.** What about the TGI (ACHN renal) of the same compound?
**A.** 32 µM

**Q.** And the TGI (SF-268 CNS)?
**A.** 37.1 µM

**Q.** And the TGI (XF 498 CNS)?
**A.** 33 µM

**Q.** And the TGI (LOX IMVI melanoma)?
**A.** 30.7 µM

**Q.** What about the TGI (HCC-2998 colon) of the same compound?
**A.** 32.8 µM

**Q.** And the TGI (EKVX NSCLC)?
**A.** 32 µM

**Q.** And the TGI (KM12 colon)?
**A.** 46.1 µM

**Q.** What about the TGI (KM20L2 colon) of the same compound?
**A.** 46.7 µM

**Q.** What about the TGI (DMS 273 small cell lung) of the same compound?
**A.** 32.1 µM

**Q.** And the TGI (HOP-62 NSCLC)?
**A.** > 100 µM

**Q.** And the TGI (COLO 205 colon)?
**A.** 50.3 µM

**Q.** What about the TGI (HT29 colon) of the same compound?
**A.** 31.7 µM

**Q.** What about the TGI (SF-539 CNS) of the same compound?
**A.** 33.6 µM

**Q.** What about the TGI (UO-31 renal) of the same compound?
**A.** 33.9 µM

**Q.** What about the TGI (HCT-15 colon) of the same compound?
**A.** 35.1 µM

**Q.** And the TGI (LXFL 529 NSCLC)?
**A.** 32.3 µM

**Q.** And the TGI (A498 renal)?
**A.** 83.1 µM

**Q.** And the TGI (SF-295 CNS)?
**A.** 35.8 µM

**Q.** What about the TGI (UACC-257 melanoma) of the same compound?
**A.** 35.1 µM

**Q.** And the TGI (SN12C renal)?
**A.** 32.7 µM

**Q.** And the TGI (SNB-75 CNS)?
**A.** 44.3 µM

**Q.** What about the TGI (SNB-19 CNS) of the same compound?
**A.** 39 µM

**Q.** And the TGI (786-0 renal)?
**A.** 30.6 µM

**Q.** And the TGI (UACC-62 melanoma)?
**A.** 31.2 µM

**Q.** What about the TGI (DLD-1 colon) of the same compound?
**A.** 29.8 µM

**Q.** And the TGI (HOP-18 NSCLC)?
**A.** 58.1 µM

**Q.** What about the TGI (NCI-H460 lung) of the same compound?
**A.** 73.8 µM

**Q.** What about the TGI (SK-MEL-5 melanoma) of the same compound?
**A.** 33.4 µM

**Q.** And the TGI (HOP-92 NSCLC)?
**A.** 86.6 µM

**Q.** What about the TGI (SK-MEL-28 melanoma) of the same compound?
**A.** 31.4 µM

**Q.** And the TGI (NCI-H226 lung)?
**A.** 94.8 µM

**Q.** And the TGI (TK-10 renal)?
**A.** 90.3 µM

**Q.** What about the TGI (NCI-H23 lung) of the same compound?
**A.** 38.8 µM

**Q.** What about the TGI (RPMI-8226 leukemia) of the same compound?
**A.** 21 µM

**Q.** And the TGI (M19-MEL melanoma)?
**A.** 31.7 µM

**Q.** And the TGI (MALME-3M melanoma)?
**A.** 41.1 µM

**Q.** What about the TGI (M14 melanoma) of the same compound?
**A.** 33.4 µM

**Q.** With `CP(C)C.[Ag][I]` as the compound, how does the TGI (IGROV1 ovarian) read?
**A.** > 100 µM

**Q.** And the TGI (K-562 leukemia)?
**A.** > 100 µM

**Q.** What about the TGI (DMS 114 small cell lung) of the same compound?
**A.** > 100 µM

**Q.** What about the TGI (OVCAR-4 ovarian) of the same compound?
**A.** 69.5 µM

**Q.** And the TGI (RXF 393 renal)?
**A.** > 100 µM

**Q.** What about the TGI (RXF-631 renal) of the same compound?
**A.** > 100 µM

**Q.** And the TGI (SW-620 colon)?
**A.** > 100 µM

**Q.** What about the TGI (SNB-78 CNS) of the same compound?
**A.** 96.1 µM

**Q.** And the TGI (CAKI-1 renal)?
**A.** > 100 µM

**Q.** What about the TGI (U251 CNS) of the same compound?
**A.** > 100 µM

**Q.** What about the TGI (MOLT-4 leukemia) of the same compound?
**A.** > 100 µM

**Q.** And the TGI (OVCAR-5 ovarian)?
**A.** > 100 µM

**Q.** What about the TGI (A549 NSCLC) of the same compound?
**A.** > 100 µM

**Q.** And the TGI (OVCAR-3 ovarian)?
**A.** > 100 µM

**Q.** What about the TGI (OVCAR-8 ovarian) of the same compound?
**A.** > 100 µM

**Q.** And the TGI (SK-OV-3 ovarian)?
**A.** > 100 µM

**Q.** What about the TGI (HCT-116 colon) of the same compound?
**A.** > 100 µM

**Q.** What about the TGI (ACHN renal) of the same compound?
**A.** > 100 µM

**Q.** What about the TGI (SF-268 CNS) of the same compound?
**A.** > 100 µM

**Q.** What about the TGI (XF 498 CNS) of the same compound?
**A.** 30.9 µM

**Q.** And the TGI (LOX IMVI melanoma)?
**A.** > 100 µM

**Q.** What about the TGI (HCC-2998 colon) of the same compound?
**A.** > 100 µM

**Q.** What about the TGI (EKVX NSCLC) of the same compound?
**A.** > 100 µM

**Q.** And the TGI (KM12 colon)?
**A.** > 100 µM

**Q.** What about the TGI (CCRF-CEM leukemia) of the same compound?
**A.** > 100 µM

**Q.** And the TGI (KM20L2 colon)?
**A.** > 100 µM

**Q.** What about the TGI (SK-MEL-2 melanoma) of the same compound?
**A.** > 100 µM

**Q.** And the TGI (DMS 273 small cell lung)?
**A.** > 100 µM

**Q.** And the TGI (HOP-62 NSCLC)?
**A.** > 100 µM

**Q.** What about the TGI (SR leukemia) of the same compound?
**A.** > 100 µM

**Q.** What about the TGI (COLO 205 colon) of the same compound?
**A.** > 100 µM

**Q.** And the TGI (HT29 colon)?
**A.** > 100 µM

**Q.** What about the TGI (SF-539 CNS) of the same compound?
**A.** > 100 µM

**Q.** What about the TGI (UO-31 renal) of the same compound?
**A.** > 100 µM

**Q.** And the TGI (HCT-15 colon)?
**A.** > 100 µM

**Q.** What about the TGI (LXFL 529 NSCLC) of the same compound?
**A.** 31.8 µM

**Q.** What about the TGI (SF-295 CNS) of the same compound?
**A.** > 100 µM

**Q.** What about the TGI (UACC-257 melanoma) of the same compound?
**A.** > 100 µM

**Q.** What about the TGI (SN12C renal) of the same compound?
**A.** > 100 µM

**Q.** What about the TGI (SNB-75 CNS) of the same compound?
**A.** 46.5 µM

**Q.** What about the TGI (SNB-19 CNS) of the same compound?
**A.** > 100 µM

**Q.** What about the TGI (786-0 renal) of the same compound?
**A.** > 100 µM

**Q.** And the TGI (UACC-62 melanoma)?
**A.** > 100 µM

**Q.** And the TGI (HL-60(TB) leukemia)?
**A.** > 100 µM

**Q.** And the TGI (DLD-1 colon)?
**A.** > 100 µM

**Q.** And the TGI (HOP-18 NSCLC)?
**A.** > 100 µM

**Q.** And the TGI (NCI-H460 lung)?
**A.** > 100 µM

**Q.** What about the TGI (SK-MEL-5 melanoma) of the same compound?
**A.** 46.4 µM

**Q.** What about the TGI (HOP-92 NSCLC) of the same compound?
**A.** > 100 µM

**Q.** What about the TGI (SK-MEL-28 melanoma) of the same compound?
**A.** > 100 µM

**Q.** And the TGI (NCI-H226 lung)?
**A.** > 100 µM

**Q.** And the TGI (TK-10 renal)?
**A.** > 100 µM

**Q.** And the TGI (NCI-H23 lung)?
**A.** > 100 µM

**Q.** What about the TGI (RPMI-8226 leukemia) of the same compound?
**A.** > 100 µM

**Q.** And the TGI (M19-MEL melanoma)?
**A.** > 100 µM

**Q.** And the TGI (MALME-3M melanoma)?
**A.** > 100 µM

**Q.** And the TGI (M14 melanoma)?
**A.** > 100 µM

Reference: PubChem BioAssay (NCI)
